Measurements taken from patent publication US12491191B2, “Inhibition of interaction between OCT4 and MAPKAPK2 or DNA-PKcs to regulate c-MYC in cancer” (Texas Tech University System, priority 2019, dated 2025).

Columns and labels:
LHN-R cells = assay: 13-cisRA response (neurite outgrowth, cell cycle) of resistant LHN-R cells; type: cell-based, human
Excerpt: (§1) FIGS. 4A and 4B provide data showing that protein expression of c-MYC and MYCN in patient-derived neuroblastoma cell lines established from clinical samples collected at diagnosis (Dx) (FIG. 4A) and progressive disease 5 (PD) (FIG. 4B). CHLA-20 and SK—N-BE(2) were used as the positive controls for c-MYC and MYCN. FIG. 4C1 and FIG. 4C2 show dot plots quantitating immunoblotting (IB) data in FIGS. 4A and 4B. The values were normalized in two ways by the intensity of specific proteins in CHLA-20 for c-MYC or SK—N-BE(2) for MYCN and GAPDH. […] Cells were treated with 5 μM 13-cisRA for 14 days. […] Triplicate samples of 10,000 events were collected as single cells for the analyses. […] Relative quantitation (2^−ΔΔCT) was used for the analyses of mRNA expression. […] LDH (cytosolic protein) and Lamin A/C (nuclear protein) were used as fractionation quality controls.
MetLuc enzymatic activity was measured. CMV immediate early promoter (pCMV IE) was a positive control. […] Left: Locations of the four sets of amplicons (a, b, c, and d) used to detect ChIP-enriched DNA fragments in the MYC enhancer region shown relative to the transcription start site (arrow). Right: PCR results detecting enriched fragments from ChIP assays of each of the 4 amplicons using ChIP-grade OCT4-1 and OCT4-2 antibodies or control normal rabbit IgG antibody. […] Cells were imaged by confocal microscopy. Blue: DAPI stained nucleus, Green: Phalloidin.
FIGS. 6A-6G show OCT4 interacting proteins by protein identification (ID) and post-translational modification (PTM) and verification of the protein expression and the role of the interacting MK2 protein in 13-cisRA resistance. […] M: Marker, C: cytosolic, N: nuclear. For protein ID, the entire lanes were analyzed, and for PTM, the specific OCT4 band was subjected to mass spectrometry analyses. (Right) OCT4 protein sequence with PTM status identified by mass spectrometry. Underline: mass spectrometry coverage, Green: not phosphorylated or acetylated, Red: phosphorylated, acetylated, or undetermined. […] The direct interaction between OCT4 and MK2 is also confirmed by Ni-NTA pull down (Middle) or immunoprecipitation by FLAG (Right) using purified proteins. […] Cells stably transduced with non-targeting NT-shRNA or MAPKAPK2-shRNA were treated with vehicle control or 13-cisRA for 14 days. […] Cells stably transduced with non-targeting NT-shRNA or MAPKAPK2-shRNA were treated with vehicle control or 13-cisRA for 14 days. […] Cells stably transduced with non-targeting NT-shRNA (20±2% vs 18±3%, 15 p=0.17) or MAPKAPK2-shRNA (19±4% vs 5±1%, p<0.01) were treated with vehicle control or 13-cisRA for 14 days.
In LHN-R treated with 13-cisRA, mRNA and protein expression of c-MYC was increased while MYCN remained suppressed (FIGS. 4F and 4G).
Thus, Applicants focused on OCT4 and generated a stable clone of LHN-R with POU5F1 knockdown using a lentiviral vector system by transducing five different short hairpin RNA sequences (POU5F1-shRNA-1 to -5) to evaluate the effect of OCT4 on 13-cisRA resistance in neuroblastoma cells. POU5F1 knockdown decreased c-MYC and Cyclin A protein expression in LHN-R cells (FIG. 5G) relative to a non-targeted control shRNA (NT-shRNA).

SMS-LHN (LHN) cells = assay: 13-cisRA response of SMS-LHN neuroblastoma cells; type: cell-based, human; settings: 5 μM, initial response
Excerpt: as §1
To determine whether increased c-MYC in PD cell lines might be due to 13-cisRA treatment, the SMS-LHN (LHN) human neuroblastoma cell line (MYCN expression without genomic amplification) was treated with a clinically achievable concentration of 13-cisRA (5 μM), following the clinical dosing schedule used in high-risk patients (2 wks on, 2 wks off, x 6 cycles).

NCI-H1048 xenograft = assay: In vivo xenograft activity, NCI-H1048; set-up: species or system mice
Excerpt: FIGS. 13A-13I show in vivo xenograft activity of M3814, a DNA-PK inhibitor, and ABT-263, a BCL-2 inhibitor, in mice carrying H1048, a human small cell lung cancer cell line.
FIGS. 14A-14I show in vivo xenograft activity of D8 (narciclasine), a DNA-PK interaction inhibitor, and ABT-199, a BCL-2 inhibitor, in mice carrying H1048, a human small cell lung cancer cell line.
In vivo xenograft activity was examined for narciclasine or M3814 in combination with ABT-263 or ABT-199 in two xenograft models of small cell lung cancer, NCI-H1048 and NCI-H847.

[1] = test system: small cell lung cancer cell lines; assay: Effect of combination with ABT-737 on c-MYC, cyclin A, PARP and caspase 3; type: cell-based, human; settings: combined with ABT-737
Method: (§2) FIGS. 12A-12F illustrate the combination cytotoxic activity of D8 (i.e., narciclasine) and ABT-737 (a BCL-2 inhibitor) in two small cell lung cancer cell lines. The effect of the combination on c-MYC, pOCT4, OCT4, cyclin A, BCL-2 family of proteins, the cleavage of and caspase-3 and PARP were evaluated.
(§3) Next, Applicants sought to check the activity of narciclasine when combined with other active agents. Venetoclax is currently indicated for chronic lymphocytic leukemia (CLL) and small lymphocytic lymphoma (SLL) patients. […] Thus, Applicants combined narciclasine with ABT-737/ABT-263, pan BCL-2 inhibitors or venetoclax (also known as ABT-199, a BCL-2 inhibitor) to examine the effect of the combination.

[2] = test system: LHN-R, CHLA-20, COG-N-289, COG-N-334, COG-N-415 cells; assay: MK2 inhibitor effect on pOCT4, c-MYC, Cyclin A in neuroblastoma cell lines; type: cell-based, human
Method: FIGS. 8A-8H show higher pMK2 and pOCT4^S111 in PD with high c-MYC. […] CHLA-20 was used as the control for the two membranes. […] The values were normalized in two ways by the expression of specific proteins in CHLA-20 and GAPDH. […] The expression of pOCT4^S111, OCT4, c-MYC, and Cyclin A was evaluated in subcellular fractions. […] The cells transduced with a doxycycline-inducible system to exogenously express OCT4WT or OCT4 S111A mutant, treated with doxycycline (Dox) for 48h followed by cycloheximide (CHX) incubation for various times. The whole cell lysates were subjected to sill immunoblotting.
Thus, pMK2-mediated increased c-MYC expression is not limited to tumors exposed to 13-cisRA. When S111 residue of OCT4 was mutated pOCT4^S111 were not detected by immunoblotting (FIG. 8G). […] MK2 inhibition by a small molecule MK2 inhibitor results in decreased pOCT4.

NCI-H1048 cell line = assay: Combination cytotoxicity with ABT-737 in NCI-H1048; type: cell-based, human; settings: combined with ABT-737, narciclasine 10 and 20 nM
Method: as §2, §3

NCI-H847 xenograft = assay: In vivo xenograft activity, NCI-H847; settings: NCI-H847 xenograft mice
Excerpt: FIGS. […]
In NCI-H847 xenograft mice, narciclasine as a single agent extended the event-free survival of mice compared with vehicle control.

[3] = test system: NCI-H82, NCI-H847, NCI-H889, NCI-H417 cells; assay: c-MYC, pOCT4S93 and apoptosis markers in small cell lung cancer cell lines; type: cell-based, human; settings: 0.3 to 2.5 μM, compared to vehicle control
Method: FIG. 11 illustrates the effect of narciclasine in c-MYC protein expression. Narciclasine's effect on pOCT4S93 and OCT4 as well as apoptosis (measured by caspase and PARP cleavage) are also assessed in four small cell lung cancer cell lines with high c-MYC expression.
Compared to vehicle control, narciclasine reduced c-MYC and pOCT4S93 and cleaved PARP and caspase 3 in four small cell lung cancer cell lines (NCI-H82, NCI-H847, NCI-H889, NCI-H417) at the concentration range between 0.3 and 2.5 μM. These experimental results, which are summarized in FIG. 11, indicate that narciclasine induces apoptosis as a cell death mechanism in small cell lung cancer cells.

MOLM-14 and NB4 cells = assay: c-MYC expression and apoptosis in MOLM-14 and NB4; type: cell-based, human; settings: 24 hours, 100 to 200 nM
Excerpt: FIG. 17 provides data illustrating the effect of D8 (narciclasine) in the expression of c-MYC and apoptosis in two human acute myelogenous leukemia, MOLM-14 and NB4.
Of the six cell lines, two cell lines (MOLM-14 and NB4) were used to test the effect of narciclasine in c-MYC expression.

NCI-H847 cell line = assay: Combination cytotoxicity with ABT-737 in NCI-H847; type: cell-based, human; settings: combined with ABT-737, narciclasine 10 and 20 nM
Method: as §2, §3

[4] = test system: small cell lung cancer cell lines; assay: Cytotoxicity in 16 small cell lung cancer cell lines; type: cell-based, human
Excerpt: FIGS. 10A-10E show cytotoxicity of D8 (i.e., narciclasine) and several DNA-PK inhibitors (NU7441, M3814, CC-115, AZD7648) in 16 small cell lung cancer cell lines with high (black and gray bars) or low (white bars) c-MYC expression.
In this Example, Applicants examined the cytotoxic activity of narciclasine (i.e., D8) in comparison to DNA-PK inhibitors that are commercially available (including NU7441, M3814, CC-115, and AZD7648) in 16 small cell lung cancer cell lines. […] The IC50 values for narciclasine was less than 100 nM in all cell lines except NCI-H889.

[5] = single agent, compared with control, NCI-H1048 xenografted mice

CC1=C(/C=C/C(C)=C/C=C/C(C)=C\C(=O)O)C(C)(C)CCC1 [13-cisRA, 13-cis-retinoic acid]
neurite outgrowth and cell cycle arrest (LHN-R cells; LHN-R after six cycles, 10 days of 13-cisRA treatment): did not show | cell cycle analysis (FIG. 6G) (LHN-R cells; MAPKAPK2-shRNA LHN-R, 13-cisRA 14 days (vehicle 19±4%)): 5±1% | cell cycle analysis (FIG. 6G) (LHN-R cells; NT-shRNA LHN-R, 13-cisRA 14 days (vehicle 20±2%)): 18±3% | S-phase content (LHN-R cells; NT-shRNA-transduced LHN-R, 13-cisRA 14 days (vehicle 26±3%)): 28±5% | S-phase content (LHN-R cells; POU5F1 knockdown LHN-R, 13-cisRA 14 days (vehicle 23±4%)): 11±1% | response to 13-cisRA (SMS-LHN (LHN) cells): arrested proliferation, neurite outgrowth and decreased MYCN protein

COc1ccc([C@@H](O)c2cc(-c3ncnc4cc(N5CCOCC5)ccc34)c(F)cc2Cl)nn1 [M3814, alpha S-[2-chloro-4-fluoro-5-[7-(4-morpholinyl)-4-quinazolinyl]phenyl]-6-methoxy-3-pyridazinem ethano, reference compound]
event-free survival (NCI-H1048 xenograft; combined with ABT-263, NCI-H1048 xenografted mice): significantly extended | event-free survival (NCI-H1048 xenograft; [5]): did not affect | c-MYC downregulation effect and cyclin A suppression effect [1]: higher

Cc1ccc(-c2ccc3c(ccc4sc5c(c43)NC[C@@H](C)NC5=O)n2)cn1 [PF3644022]
pOCT4, OCT4S111, c-MYC and Cyclin A [2]: decreased

O=C1N[C@@H]2C(=C[C@H](O)[C@@H](O)[C@H]2O)c2cc3c(c(O)c21)OCO3 [narciclasine]
combination cytotoxic activity (NCI-H1048 cell line): synergistic cytotoxic activity | event-free survival (NCI-H847 xenograft; combination with ABT-199, compared with the single agents): significantly longer | event-free survival (NCI-H847 xenograft; single agent, compared with vehicle control): extended | PARP and caspase 3 cleavage [3]: cleaved | c-MYC and pOCT4S93 expression [3]: reduced | PARP and caspase 3 cleavage (MOLM-14 and NB4 cells): observed | c-MYC expression (MOLM-14 and NB4 cells): substantially decreased | combination cytotoxic activity (NCI-H847 cell line): synergistic cytotoxic activity | event-free survival (NCI-H1048 xenograft; combined with ABT-199, NCI-H1048 xenografted mice): significantly extended | event-free survival (NCI-H1048 xenograft; [5]): did not affect | IC50 ([4]; all of 16 small cell lung cancer cell lines except NCI-H889): < 100 nM | potency in cytotoxicity relative to the agents tested ([4]; compared with NU7441, M3814, CC-115, AZD7648): highest potency | c-MYC downregulation effect and cyclin A suppression effect [1]: higher
